Laboratory results taken from BindingDB's records for doi:10.1124/mol.58.6.1601 (University of California Irvine, 2000).

Assays:
[1] = target: T1, Cysteinyl leukotriene receptor 1 (Homo sapiens, UniProt Q9Y271)
T1 sequence (Q9Y271 whole entry): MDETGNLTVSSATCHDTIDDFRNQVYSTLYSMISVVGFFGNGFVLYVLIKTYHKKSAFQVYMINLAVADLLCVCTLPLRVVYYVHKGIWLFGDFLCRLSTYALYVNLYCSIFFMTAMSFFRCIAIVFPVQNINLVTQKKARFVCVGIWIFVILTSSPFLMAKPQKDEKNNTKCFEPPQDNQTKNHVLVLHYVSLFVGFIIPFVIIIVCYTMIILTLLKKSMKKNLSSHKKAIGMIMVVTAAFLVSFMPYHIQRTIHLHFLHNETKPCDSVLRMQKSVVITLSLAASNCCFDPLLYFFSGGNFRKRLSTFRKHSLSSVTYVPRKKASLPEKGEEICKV

[2] = target: T2, Cysteinyl leukotriene receptor 2 (Homo sapiens, UniProt Q9NS75)
T2 sequence (Q9NS75 whole entry): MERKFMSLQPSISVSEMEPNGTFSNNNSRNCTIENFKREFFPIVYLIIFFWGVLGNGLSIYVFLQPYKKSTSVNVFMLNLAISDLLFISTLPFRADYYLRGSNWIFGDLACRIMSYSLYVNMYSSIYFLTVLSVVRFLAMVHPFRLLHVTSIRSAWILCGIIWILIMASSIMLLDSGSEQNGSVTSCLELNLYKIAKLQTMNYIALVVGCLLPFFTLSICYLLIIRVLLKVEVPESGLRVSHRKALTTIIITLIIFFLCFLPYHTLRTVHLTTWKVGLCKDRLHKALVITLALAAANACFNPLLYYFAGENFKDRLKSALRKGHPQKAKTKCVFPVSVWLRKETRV

Compound	Ki [1]	Ki [2]
CN(C)C(=O)CCSC(SCCC(=O)O)c1cccc(/C=C/c2ccc3ccc(Cl)cc3n2)c1 (stereo not drawn) [3-(((3-(2-(7-chloroquinoline-2-yl)ethenyl)phenyl)((3-dimethylamino-3-oxopropyl)thio)methyl)thio)propanoic acid]	10.4 nM	1000 nM
CCCCC/C=C\C/C=C/C=C/C=C/[C@@H](Sc1ccc(C(=O)O)cc1)[C@@H](O)CCCC(=O)O [CAS_134733-55-4]		300 nM
